# According to patent publication US9359314B2, “Thiazine amide derivative and pharmaceutical composition and use thereof” (Institute Of Pharmacology And Toxicology Academy Of …, priority 2012, dated 2016):
# What was measured:
# MDCK-MDR1 cells = test system: MDCK-MDR1 cells
# Description: MDCK-MDR1 cells are monolayer cells with high expression of a P-gp transporter after MDR1 genes are transfected in MDCK (Madin-Darby canine kidney epithelial cells). Due to the compactness of the monolayer cells and high expression of a pharmaceutical efflux protein, the cells have a similarity to the structure of the blood-brain barrier (BBB), and can be used as one of the models for evaluating the BBB permeability. Because the compounds of the present invention targeted at the central nervous system and were needed to permeate the BBB, the MDCK-MDR1 cells were applied to research the membrane permeability, and the BBB permeability was preliminarily evaluated.
# The cryopreserved MDCK-MDR1 cells were fast thawed in a 37° C. water bath. The postthawed cells were added into a DMEM culture medium containing 10% FBS, cultured in an incubator at 37° C., 5% CO2, with the relative humidity of 90%, and the culture medium was replaced every other day. After 1-2 days' growth for cell fusion, the cells were digested at 37° C., with the mixed digestion solution of 0.25% trysin-EDTA (0.2%), and subcultured according to a certain ratio, wherein the cells used for the experiment are 40˜60-generation cells.
# When 80% of the cells were fused, the cells were suspended with a complete culture medium, and inoculated into a Millicell plate according to 1×10^6-mL^−1. The culture solution was changed once every two days, then once every day after 1 week. After cultured for 5 days, the cells were ready for transport experiment when the resistance achieves a platform (>2000 Ω·cm^2).
# The solution in the lower pools was collected at 0, 30, 90 and 120 min and stored at −20° C. for later measurement. The permeation amount of the Rho-123 in the lower pools was detected by a fluorescence spectrophotometer, wherein the transmission wavelength was set to […] and the excitation wavelength was set to 530 nm.
# The Millicell inoculated with cells was soaked with HBSS solution at 37° C. for an appropriate time before the test, and slightly flushed to remove matters attached on the surfaces of the cells. […] Each concentration was repeated in three wells, the sample was precisely added with 50 μL of internal standard solution and 350 μL of ethyl acetate, shaked and uniformly mixed, centrifugated at 12000 rmp for 5 min, 300 μL of supernatant was took, volatilized to dryness, re-dissolved with 50 μL of acetonitrile and 10 μL was took for sampling and determination. Permeability from the basal surface to the cavity surface: drug was added from the basolateral side (BL), while the blank HBSS solution was added from the apical side (AP), and the following steps were same as those in the permeability test from the cavity surface to the basal surface.
# The apparent permeability coefficient (Papp) of the drug reflected the capability of permeating the monolayer cells of the drug and the absorption speed and degree of the drug, which can be calculated by the following formula: […]
# wherein, ΔQ was the permeation amount of the drug in a Δt time period, A was the surface area of the cells, namely the area (0.6 cm^2) of a support membrane in the model, and CO was the initial concentration. The unit of the Papp was commonly represented by cm·h^−1 or cm·s^−1.
# The sample was detected by LC/MS. Concentration of each sample was quantified with a standard curve (50 nM-10000 nM).
# BCAO-LBP mice = assay: Anti incomplete cerebral ischemia effect in mouse bilateral carotid artery occlusion with low blood pressure (BCAO-LBP) model, intragastric administration; assay type: in vivo, Kunming mice; settings: 30 mg/kg i.g once per day for 3 d, x ± SEM; for Neural deficit score: medium group 3.92 ± 0.25; for MDA content: whole brain, medium group 40.94 ± 1.754
# Description: The example, which took Kunming mice as experimental subjects, investigated the protection of prevention administration of the compound of the present invention against incomplete cerebral ischemia of mice, through intravenous and intragastric administration, on mouse bilateral carotid artery occlusion with low blood pressure (BCAO-LBP) model, by measuring neurological function score and MDA content in brain.
# 2.1.2 Preparation of drug for intragastric administration: the compound of the present invention was made into 30 mg/kg by using 0.7% CMC-Na, fully and uniformly mixed with sonication to afford a solution of 1.5 mg/ml. Intragastric (i.g) administration was performed according to 0.2 ml/10 g.
# 28 mice which had adapted to the laboratory environment for one week were divided into balanced groups according to body weight, i.g administered respectively with 0.7% CMC-Na or the compound of the present invention, once per day for continuous 3 d. The specific groups were as follows:
# drug group: 12 mice, with i. g of solution of compounds of the present invention separately, wherein the dosage was 30 mg/kg
# 2.3.1 Mouse bilateral carotid artery ligation: the mouse was performed with orbit bloodletting (about 30% of the total blood volume of the mouse) to lower the blood pressure 1 h later after last administration, then the mouse was fixed on an operation plate in a supine position, and an incision in the middle of the neck was made. The common carotid artery was exposed with blunt separation, and 2 sutures were prepared under each end of the exposed artery, and both end of the artery were ligatured, respectively. When the ligation was completed for the […], started timing, then cut the common carotid artery between the two ligations, and the incision was sutured. In the sham operation group, the common carotid artery was separated without ligation. The mouse was rapidly released after the operation, the behavior in 6 h and the death time of the mouse was observed and recorded (scored by a blind method according to the following table). The brain was quickly took out after death, the cerebellum was removed, and the MDA content in the whole brain was determined by a TBA method.
# The brain of a mouse was taken out, weighted, prepared into 15% brain homogenate with N.S, 1.2 ml of the homogenate was taken out and put into a 37° C. water bath for 1 h (shaked once every 10 min), then taken out from water, added with 0.6 ml of 20% trichloroacetic acid, uniformly mixed, and stood for 10 min, centrifugated at 2000 r for 10 min, 1.2 ml of supernatant fluid was added with 0.6 ml of 0.67% TBA, and put into a boiling water bath for 10 min, then cooled, and OD value was determined at 532 nm.
# Experimental data was represented by x±SEM, SPSS13.0 statistical software was applied, homogeneity of variance was judged by single-factor variance analysis. The homogeneity of variance was tested by LSD, the non-homogeneity of variance was tested by Dunnett's T3, the significant differences between the groups were compared and P<0.05 represented a statistical significance.
# [1] = test system: chicken embryonic dorsal root ganglia; assay: Neurotrophic activity: in-vitro serum-free culture model of chicken embryonic dorsal root ganglia, neurite growth score; assay type: cell-based; settings: 48 h, score 0-3, control 0.33
# Protocol: The neurotrophic activity of the compound of the present invention can be reflected on a variety of in-vitro biological models, such as an in-vitro serum-free culture model of chicken embryonic dorsal root ganglia. Chicken embryo incubated for 8 d was used, and spine and ganglia on the two sides were exposed under a dissecting microscope in sterile environment. The dorsal root ganglia was picked one by one with tweezers, inoculated into culture bottles laid with rat tail collagen according to 5-6 dorsal root ganglia per bottle, two bottles were prepared per dose, and cultured at 37° C., 5% of CO2, for 1 h in an incubator for adherence, then added with a serum-free culture medium DMEM containing NGF (0.15 ng/mL) and the compound of the present invention, while the control group was only added with the culture medium and the same dose of NGF. After being cultured in the incubator for 48 h, the growth of the neurite around dorsal root ganglia was observed under an inverted phase contrast microscope and scored according to the length and density of the neurite, wherein 0 point represents no neurite; 1 point represents the neurite was sparse; 2 points represent the neurite was relatively long or dense; and 3 points represent the neurite was long and dense. The score of the growth of neurite of chicken embryonic dorsal root ganglion under the promotion of the compound of the present invention with different dosage was shown in table 1, wherein each score is an average of five dorsal root ganglia.
# [2] = compound 1 pM + NGF (0.15 ng/mL)
# [3] = compound 100 pM + NGF (0.15 ng/mL)
structure (smiles),measurement,setting,value
"CCOC(=O)[C@H](CC(C)C)NC(=O)[C@@H]1CSCCN1S(=O)(=O)c1ccc(C)cc1 [Example 5, (2S)-4-Methyl-2-{[(3R)-4-(toluene-4-sulfonyl)-thiomorpholine-3-carbonyl]-amino}-pentanoic acid ethyl ester]",Papp(×10^−6),MDCK-MDR1 cells,8.38 ×10^−6
same,Neural deficit score,BCAO-LBP mice,3.62 ± 0.31
same,MDA content,BCAO-LBP mice,36.09 ± 1.85 nmol/g
same,Mean score (growth of neurite of chicken embryonic dorsal root ganglion),[1]; [2],0.65
same,Mean score (growth of neurite of chicken embryonic dorsal root ganglion),[1]; [3],1.55
"Cc1ccc(S(=O)(=O)N2CCSC[C@H]2C(=O)N[C@H](CC(C)C)C(=O)O)cc1 (hydrate or solvate) [Example 10, (2R)-4-Methyl-2-{[(3R)-4-(toluene-4-sulfonyl)-thiomorpholine-3-carbonyl]-amino}-pentanoic acid]",melting point,,87 to 89 °C
"Cc1ccc(S(=O)(=O)N2CCSC[C@H]2C(=O)N[C@H](CC(C)C)C(=O)OC(C)C)cc1 [Example 8, (2R)-4-Methyl-2-{[(3R)-4-(toluene-4-sulfonyl)-thiomorpholine-3-carbonyl]-amino}-pentanoic acid isopropyl ester]",Papp(×10^−6),MDCK-MDR1 cells,39.5 ×10^−6
same,Neural deficit score,BCAO-LBP mice,2.67 ± 0.31
same,MDA content,BCAO-LBP mice,33.27 ± 1.91 nmol/g
same,Mean score (growth of neurite of chicken embryonic dorsal root ganglion),[1]; [2],1.68
same,Mean score (growth of neurite of chicken embryonic dorsal root ganglion),[1]; [3],2.25
"Cc1ccc(S(=O)(=O)N2CCSC[C@H]2C(=O)N[C@H](CC(C)C)C(=O)O)cc1 [Example 10, (2R)-4-Methyl-2-{[(3R)-4-(toluene-4-sulfonyl)-thiomorpholine-3-carbonyl]-amino}-pentanoic acid]",Papp(×10^−6),MDCK-MDR1 cells,34.1 ×10^−6
"Cc1ccc(S(=O)(=O)N2CCSC[C@H]2C(=O)N[C@H](CC(C)C)C(=O)OCc2ccccc2)cc1 [Example 9, (2R)-4-Methyl-2-{[(3R)-4-(toluene-4-sulfonyl)-thiomorpholine-3-carbonyl]-amino}-pentanoic acid benzyl ester]",Papp(×10^−6),MDCK-MDR1 cells,12.4 ×10^−6
same,melting point,,91 to 93 °C
"CCOC(=O)[C@@H](CC(C)C)NC(=O)[C@@H]1CSCCN1S(=O)(=O)c1ccc(C)cc1 [Example 6, (2R)-4-Methyl-2-{[(3R)-4-(toluene-4-sulfonyl)-thiomorpholine-3-carbonyl]-amino}-pentanoic acid ethyl ester]",Papp(×10^−6),MDCK-MDR1 cells,19.2 ×10^−6
same,Neural deficit score,BCAO-LBP mice,3.08 ± 0.40
same,MDA content,BCAO-LBP mice,30.87 ± 0.95 nmol/g
same,Mean score (growth of neurite of chicken embryonic dorsal root ganglion),[1]; [2],1.23
same,Mean score (growth of neurite of chicken embryonic dorsal root ganglion),[1]; [3],1.88
"CCCOC(=O)[C@@H](CC(C)C)NC(=O)[C@@H]1CSCCN1S(=O)(=O)c1ccc(C)cc1 [Example 7, (2R)-4-Methyl-2-{[(3R)-4-(toluene-4-sulfonyl)-thiomorpholine-3-carbonyl]-amino}-pentanoic acid propyl ester]",Papp(×10^−6),MDCK-MDR1 cells,49.8 ×10^−6
same,Neural deficit score,BCAO-LBP mice,2.91 ± 0.28
same,MDA content,BCAO-LBP mice,34.90 ± 1.65 nmol/g
same,Mean score (growth of neurite of chicken embryonic dorsal root ganglion),[1]; [2],1.46
same,Mean score (growth of neurite of chicken embryonic dorsal root ganglion),[1]; [3],1.95
